Literature values as cited in patent US6670393B2, “Carbamate-based cationic lipids” (Promega Biosciences, Inc., priority 1995, dated 2003).

Tested on: cells

SMILES: CC(C)CCC[C@@H](C)[C@H]1CC[C@H]2[C@@H]3CC=C4C[C@@H](OC(=O)NCCN(C)C)CC[C@]4(C)[C@H]3CC[C@]12C [DC-Chol]
- toxicity to cells (reported): lower toxicity
- transfection (reported): more efficient transfection
